Values quoted from earlier work as cited in patent US20160235839A1, “CALCIUM FLUORIDE COMPOSITIONS” (priority 2013, published 2016).

System: chicken red blood cells
Conditions: no cholesterol

Substance: QS21
- Hemolytic activity of QS21 by itself: too hemolytic
